Values joined by “and” are separate entries in the source; they are usually repeats but may differ in a detail not shown here. Identical values can stand only once. “Also recorded” adds a separate entry of the source. Like-named read-outs stand apart in the source and are kept apart here.
Key:
[1] = biological target: mo-DCs; assay: Alexa-NadAΔ351-405 binding to mo-DCs (flow cytometry, Scatchard analysis); set-up: species or system human; details: Scatchard plot
Method: In some cases, DCs primed or not with IFN-γ were treated at 37° C. for 1 hour with FCS/RPMI containing Bafilomycin A1 200 nM, incubated at 37° C. (in RPMI medium supplemented with 10% FBS and Bafilomycin A1) or 0° C. (in PBS supplemented with 10% FBS) for 3 hours with different concentrations (0.0375-5 μM) of Alexa-NadAΔ351-405 or NadA. Afterward cells were washed and suspended in FACS buffer for FACS analysis. Scatchard plots were constructed from data obtained from cell-associated mean fluorescence intensities due to cell-bound Alexa NadA were measured. The dissociation constant Kd and maximal binding capacities were then determined by Scatchard analyses.

[2] = system: mo-DCs; assay: Cytokine and chemokine secretion by mo-DCs (Bio-Plex, ELISA); format: cell-based, human; details: for IL-12 released on co-stimulation with R-848: NadA 1.5 μM + R-848 1 μM
Method: Reagents used were tested for low endotoxin contamination using the Limulus amoebocyte assay (Sigma). Dendritic cells were generated from human peripheral blood mononuclear cells (PBMC) as described previously. In brief, PBMC were isolated from buffy coats of healthy donors by Ficoll-Paque Plus density gradient centrifugation (Amersham Pharmacia Biotech AB). Separate monocyte and T-cell fractions were obtained from PBMCs by Percoll density gradient centrifugation (Amersham Pharmacia Biotech AB). Residual T and B cells were removed from monocyte fraction by plastic adherence of 3×10^6 cells per well in 6-well plates (Costar) resulting in CD14^+ monocyte populations of >95% purity (determined by flow cytometry). DC were obtained by 6-d culture adherent monocytes in medium with 20 ng/ml IL-4 (5×10^6 units/mg, Peprotech) and 50 ng/ml GM-CSF (1×10^7 units/mg, Peprotech). Cytokines were added again on day 4 in RPMI-1640 medium supplemented with 10% FBS. Following this procedure more than 90% cells belonged to the immature DC phenotype (CD1a^+, HLADRlow, CD14^−, CD83^−, CD86^low, CD80^low). On day 5 cells were treated with nothing or with recombinant human IFN-γ (1000 U/ml) for 18 h before stimulation with NadA (0.0375-5 μM) or LPS (1 μg/ml). After 24 h cells were harvested and analysed. Culture supernatants were collected frozen in liquid nitrogen and conserved at −80° C. for cytokine analysis.
The antibody pairs used, directed against different non-competing epitopes of a given cytokine, were purchased from BioRad. Calibration curves from recombinant cytokine standard were prepared with four-fold dilution steps in RPMI-1640 medium containing 10% FBS. Assays were carried out in 96-well sterile pre-wetted filter plates at room temperature and protected from light. A mixture containing 5000 microspheres per cytokine was incubated together with standard or sample in a final volume of 50 μl for 30 min, under continuous shaking (300 rpm). After three washes by vacuum filtration with Bio-Plex washing buffer a cocktail of biotinylated antibodies diluted in Bio-Plex detection antibody diluent was added (25 μl to each well). After a 30 minutes incubation and washing, Streptavidin-PE diluted in Bio-Plex Assay buffer was added (50 μl per well). At the end of 10 minutes incubation under continuous shaking and after washing the fluorescence intensity of the beads was measured in a final volume of 125 μl of Bio-Plex assay buffer. Data analysis was done with Bio-Plex Manager software using a five-parametric-curve fitting. The detection limits were […].
IL12(p40) was measured by capture enzyme-linked immunosorbent assay (ELISA) with antibody pairs and cytokine standard purchased from Bender MedSystems. The concentrations of IL12(p40) in the cell-free supernatants were determined with ELISA kits according to the manufacturer's instructions. The detection limit of the assays was […].

[3] = Heparin-agarose affinity chromatography; format: binding; details: salt gradient 0.05-3M NaCl
Method: Using, affinity chromatography with different buffers (phosphate 20 mM and hepes 20 mM), pH (5.5, 7.4 and 8.0) and CaCl2 concentrations, the binding of NadA to heparin was further investigated. A solution of hepes 20 mM containing 5 μg NadA was added to 100 μl of heparin-agarose pre-equilibrated in the same buffer. After washing, bound protein was eluted using a salt gradient (0.05-3M NaCl). All the fractions from the previous steps were collected and transferred to nitrocellulose membrane using Dot-blot. The protein was detected with a rabbit polyclonal anti-NadA antibody and phosphatase alcalyne-conjugated goat anti-rabbit anti-IgG with its substrate. This protocol has shown a heterogeneous behaviour for NadA. A fraction of the protein elutes at physiological salt concentrations (100-150 mM NaCl) and a further one elutes at high salt concentrations (up to 3M NaCl).

[4] = system: human macrophages; assay: NadA binding to human macrophages; details: 37° C.
Method: The graphs plot the mean fluorescence intensities (MFI) ±SD measured in human macrophages that have been incubated with NadAΔ351-405-Alexa, at different concentrations (A), or with 100 nM NadAΔ351-405-Alexa in presence of increasing concentrations of unlabelled protein (B), for 3 hours at 37° C. or 0° C. The reported data are the average of three independent experiments repeated in triplicate.
NadA binding to monocyte-derived macrophages was also investigated. A dose-dependent association of NadA to macrophages was confirmed by MFI analysis and competition by non-labelled ligand was used to ascertain whether NadA binding was specific.

[5] = system: human macrophages; assay: Surface markers of human macrophages; format: cell-based
Text: The functional effect of NadA on human monocytes and macrophages was investigated using a soluble recombinant mutant lacking the membrane anchor and a full length protein expressed in E. coli OMV or N meningitidis OMV. To better define the immuno-modulatory activity of NadA, the cells were stimulated with protein plus or minus both microbial stimulus (LPS) and immunological stimulus (IFNγ).
The effect of NadAΔ351-405 on monocyte and macrophage cells was further investigated by measuring the expression of the antigen presentation marker MHC-II, the co-stimulatory molecules CD80 and CD86 and the cell adhesion molecule ICAM-1.

[6] = system: human monocytes; assay: Soluble mediator secretion by monocytes after 3 and 7 culture days, re-stimulated with LPS; format: cell-based
Method: The secretion of the main immune mediators by human monocytes, after 3 and 7 culture days following stimulation with NadAΔ351-405 or LPS, was tested with a Bioplex immune array after 24 hours incubation with LPS. Analysis was performed to test pro-inflammatory cytokine TNFα and IL6, regulatory cytokine IL-10 and IL-12(p70) and chemokine IL-8, MCP-1, MIP1-α, RANTES and […] secretion.

[7] = after IFN-γ priming, 24 hours, NadAΔ351-405 1 μM

NadAΔ351-405
Kd ([1]; read-out: Kd1, high affinity binding sites): 50 to 100 nM and 90 nM
Kd ([1]; read-out: Kd2, low affinity binding sites): 3000 to 5000 nM and 4000 nM
IL-12 released on co-stimulation with R-848 ([2]; after IFN-γ priming): 45 ng/mL
IL-12 released on co-stimulation with R-848 ([2]; no IFN-γ priming): 2 ng/mL
increase of IL-12 release by IFN-γ priming ([2]; NadA + R-848): 20 fold
IL-12p70 secretion, dose response ([2]; absence of IFN-γ priming, up to 5 μM NadA): undetected
IL12-p40 maximal secretion relative to LPS ([2]; after IFN-γ priming): ~2%
IL-12p70 secretion level relative to LPS ([2]; after IFN-γ priming): < 2%
IL-12p70 secretion, dose response ([2]; after IFN-γ priming): reached a plateau below 1 μM NadA
IL-6 production relative to maximal LPS production [2, 7]: ~24%
TNFα production relative to maximal LPS production [2, 7]: ~24%
NadA concentration at which IL-6, TNFα and IL-8 were evident ([2]; non-primed cells): higher than 1 μM
IL-8 secretion relative to that induced by LPS ([2]; with and without IFN-γ priming): ~24%
IL-10 production ([2]; with or without IFN-γ priming, up to 5 μM NadA): Under no condition in this example was NadA able to induce IL-10 production; also recorded: undetectable
NaCl concentration of elution from heparin-agarose, further fraction [3]: up to 3 M
NaCl concentration of elution from heparin-agarose, one fraction [3]: 100 to 150 mM
decrease of the signal associated to macrophages by non-labelled ligand [4]: −50%
ICAM-1 expression [5]: increased
HLA-DR expression ([5]; IFN-γ co-stimulation): greatly enhanced
CD80 expression ([5]; co-stimulation with IFN-γ): increased
CD86 expression ([5]; co-stimulation with LPS): Partial stimulation
IL-6 production ([6]; after 3 days of culture, re-stimulated with LPS): greater production of IL-6 compared to LPS-treated cells
IL-10 production ([6]; cultured cells re-stimulated with LPS): able to induce IL-10 production

— patent US20110008279A1, “Methods and Compositions Relating to Adhesins as Adjuvants” (priority 2005, published 2011)
